Source: patent US20180055816A1, “PYRANONAPHTHOQUINONE COMPOUNDS AND METHODS OF USE THEREOF” (University of Kentucky Research Foundation, priority 2016, published 2018)

Tests used:
4E-BP1 phosphorylation = assay: Inhibition of 4E-BP1 phosphorylation in HCT116 cells (Western blot); format: cell-based, human; conditions: 12 h
Method: (§1) Compounds that pass this single dose filter are then tested in a CRC (HCT116) in vitro cytotoxicity assay and, in parallel, an in vitro assay to assess propensity for intracellular reactive oxygen species (ROS) production using the redox sensitive probe CeIIROX® Deep Red reagent (Invitrogen) by flow cytometry analysis (47).
(§2) Cells were lysed in NP-40 lysis buffer (50 mM Tris-HCl, pH 7.5, 150 mM NaCl, 1 mM EDTA, 1% NP-40, 10% glycerol, protease and phosphatase inhibitor cocktail). Western blot analysis were performed using equivalent total protein loadings as described previously. For immunoprecipitation, the cell lysates were incubated with the indicated antibody overnight followed by incubation with a 50% slurry of protein G sepharose beads for 3 h at 4° C. The beads were washed three times with the lysis buffer, and the immunoprecipitated protein complexes were resuspended in 2× Laemmli sample buffer followed by western blot analysis.

[1] = test system: intracellular reactive oxygen species (ROS); assay: Intracellular ROS production, CellROX Deep Red flow cytometry, HCT116 cells; format: cell-based, human; conditions: HCT116, 2 μM, 1 h
Method: as §1
(§3) The ROS production was determined using the CellROX Deep Red Flow Cytometry Assay Kit according to the manufacturer's protocol (Life Technologies). Briefly, cells were treated with 2 μM of the indicated compounds or DMSO as control for 1 h. After treatment, cells were incubated with 0.5 μM of CellROX Deep Red reagent for 1 h at 37° C., washed twice with PBS and immediately analyzed by a FACScan flow cytometer. For the measurement of cellular H2O2 level, cells were treated with 2 μM of the indicated compounds for 5 h.

Prx1 = biological target: T1, Prx1 (Homo sapiens, UniProt Q06830); assay: Prx1 catalytic activity inhibition; format: biochemical; conditions: recombinant Prx1, 1 hour incubation
T1 sequence (Q06830 1-199): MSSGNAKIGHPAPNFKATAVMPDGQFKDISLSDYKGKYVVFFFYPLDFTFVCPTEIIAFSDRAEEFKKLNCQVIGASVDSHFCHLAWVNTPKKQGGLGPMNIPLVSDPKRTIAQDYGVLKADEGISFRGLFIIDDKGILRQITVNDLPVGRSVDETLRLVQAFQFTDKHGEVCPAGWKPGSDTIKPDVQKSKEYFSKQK
Method: The recombinant Prx1 protein was incubated with the indicated concentration of FB, 12, or conoidin A for 1 hour. Data are presented as mean±s.e.m. (n=3 technical replicates per condition). […]. Statistical significance was determined by the Student's t-test.
Prx1 and Grx3 are antioxidant enzymes known to regulate oxidative stress. Prx1 catalyzes peroxide reduction of H2O2, whereas Grx3 functions as glutathione (GSH)-dependent oxidoreductase by participating in the conversion of reduced GSH to oxidized glutathione disulfide (GSSG). […] While Grx3 biochemical assays are lacking, FB and active analogs could lead to a decrease in GSH levels and an increase in GSSG levels in HCT116 cells (FIGS. 23A-B). As antioxidant enzymes utilize cysteine-containing active sites to reduce various cellular peroxide or disulfide substrates, the role of Prx1/Grx3 cysteines in FB ligand-binding was assessed through replacing their cysteines to alanines. […] Finally, mass spectrometry analysis confirmed the covalent modification of Prx1 and Grx3 by FB at these specific target sites. These cumulative studies provide strong validation of Prx1 and Grx3 as the predominate molecular targets of PNQs in cancer cells.

[2] = test system: colorectal cancer (CRC) cell lines; assay: Cytotoxicity against a panel of colorectal cancer cell lines; format: cell-based, human; conditions: 72 h
Text: Human colon (HCT116, DLD-1, T84, HCT15, RKO, SW620) and breast (MDA-MB-231) cancer cell lines were obtained from the American Type Culture Collection (ATCC, Manassas, Va.) and cultured in the appropriate medium with supplements as recommended by ATCC. […] In addition, all the cell lines are routinely checked for morphologic and growth changes, to probe for cross-contaminated, or genetically drifted cells. If any of these features occur, we use the short tandem repeat (STR) profiling service by ATCC to re-authenticate the cell lines. HCT116 cells with stable knockdown of 4E-BP1 and its control stable transfectants were generated as described previously {Ye, 2014 #1007}. For transient transfection, cells were transiently transfected with DNA using Lipofectamine 3000 according to the manufacturer's protocol (Life Technologies, Carlsbad, Calif.).
Cell growth was assessed as described previously. Briefly, 5×10^4 cells were seeded in 6-well plates in triplicates. After 24 h, cells were treated with the indicated compounds and incubated at 37° C. The cells were cultured for 3 days and the number of viable cells was counted using the Vi-CELL XR 2.03 (Beckman Coulter, Brea, Calif.). For apoptosis, cells were analyzed by flow cytometry using the Annexin V-FITC Apoptosis Detection Kit according to the manufacturer's protocol (BD Biosciences, San Jose, Calif.).

cellular GSH = assay: Cellular glutathione (GSH) assay in HCT116 cells; format: cell-based, human; conditions: HCT116, 2 μM, 5 h
Method: Cells were treated with 2 μM of the indicated compounds or DMSO as control for 5 h. After treatment, a total number of 1×10^6 cells were lysed in 100 μl of ice-cold NP-40 lysis buffer for 10 min. The lysate was centrifuged for 10 min and the supernatant was used for glutathione assay using the ApoGSH glutathione detection kit according to the manufacturer's protocol (BioVision Research Products, Mountain view, CA). The total amount of GSH was measured using a fluorescence plate reader at Ex./Em.=380/460 nm.

GSSG = assay: Quantification of glutathione disulfide (GSSG) in HCT116 cells; format: cell-based, human; conditions: HCT116, 2 μM, 5 h
Method: Cells were treated with 2 μM of the indicated compounds or DMSO as control for 5 h. Quantification of GSSG was essentially performed using the manufactures instructions for a microplate assay for GSH/GSSG (Oxford Biomedical Research, Inc, Oxford, Mich.). A total number of 0.5×10^6 cells were collected in 1.5 ml centrifuge tubes containing ice-cold buffer with the thiol scavenger to keep GSSG in its oxidized form. The cells were homogenized with a Teflon pestle and the cell suspension sonicated in icy water for 2-3 minutes. Ice-cold metaphosphoric acid was added to deproteinate the samples. The samples were centrifuged at 1000×g at 4° C. and the supernatants were used for determining the GSSG concentration according to the manufactures protocol using a microplate reader with 405 nm filter. The change in GSSG levels in the indicated compound-treated samples was expressed as fold change compared to control (DMSO) treated samples.

H2O2 = assay: Cellular H2O2 level in HCT116 cells; format: cell-based, human; conditions: HCT116, 2 μM, 5 h
Method: as §3

caspase 3 = assay: Caspase 3 activation / cleaved PARP in HCT116 cells (Western blot); format: cell-based, human; conditions: HCT116, 2 μM, 12 h
Method: HCT116 cells were treated with 1 μM MK2206 and 100 nM PD0325901 alone and in combination, 100 nM rapamycin, 0.5 μM AZD8055, 2 μM UCF76-A or 2 μM FB for 12 h followed by Western blot analysis for the indicated proteins.
as §2

inhibition of Prx1 catalytic activity (Prx1): potently inhibit
Structure (SMILES): CCCC1OC2CC(=O)OC2C2=C1C(=O)c1c(O)cccc1C2=O (stereo not drawn) [FB, frenolicin B]
inhibition of 4E-BP1 phosphorylation (4E-BP1 phosphorylation): effectively inhibited | cellular ROS [1]: marked increase | cytotoxicity against CRC cell lines [2]: potent cytotoxicity | cytotoxicity against CRC cell lines ([2]; listed as frenolicin B): potent cytotoxic activity | GSH levels (cellular GSH): decrease | GSSG levels (GSSG): increase | cellular H2O2 (H2O2): marked increase | activation of caspase 3 with induction of cleaved PARP (caspase 3): potent activators
